{"source": "paper PMC8443589", "about": "“Modelling human liver fibrosis in the context of non-alcoholic steatohepatitis using a microphysiological system” (Communications Biology, 2021)", "key": {"[1]": {"tested_on": "liver MPS NASH model + TGFβ (PHH, KC and HSC co-cultures, high fat)", "assay": "Fibrosis-associated soluble biomarkers (TIMP-1, pro-collagen 1) in liver MPS NASH model with TGFβ dosed with OCA or ELF (Fig 6b)", "type": "cell-based, human", "conditions": "for Pro-collagen 1 / TIMP-1: NASH + TGF, individual replicates", "source_text": "The systems biology approach identified TGFβ to be a key driver in creating a more advanced NASH phenotype in the MPS model, with enhanced fibrotic markers and reduced liver function. […] Therefore, we explored how effective pharmacological intervention would be for NASH microtissues with high NPC numbers supplemented with TGFβ and exposed them to varying concentrations of OCA and ELF QD as previously described (Supp. Fig. 6a). […] OCA had the greatest effect on IL-1Rα whereas ELF had the greatest effect on MCP-1 reflecting the fact that while both candidate drugs have anti-inflammatory properties, but their mechanisms of action are different. […] Finally, we used our quantitative fibrosis imaging assay to assess the effect of each candidate drug on collagen-1 deposition and α-SMA expression (Fig. 6c). […] Both candidate drugs caused a significant reduction in collagen-1 deposition and α-SMA expression, with the highest concentrations of OCA and ELF causing an 80% reduction in α-SMA expression and a 75% reduction in collagen-1 deposition (Fig. 6c).\nFig. 6 Using enhanced liver MPS NASH model with TGFβ, Obeticholic acid and Elafibranor modulate disease phenotype to a greater extent than in standard NASH model. PHH, KC and HSC co-cultures were cultured in the MPS platform under high-fat conditions and dosed with varying concentrations of Obeticholic acid (OCA) and Elafibranor (ELF) QD or vehicle control for 10 days, following an initial 4-day pre-culture phase. Throughout the compound dosing period TGFβ was also dosed onto all microtissues (NASH only vehicle control samples were also included in the study for comparison, which were not treated with TGFβ or dosed with any compound). a The secreted cytokine profile from treated liver microtissues was compared to determine the effects of each compound on the inflammatory profile of the liver with samples analysed at day 8 and 14 of the culture. Data were normalised by Z-transformation to allow comparison of all analytes (white = undetected). b The expression of fibrosis-associated biomarkers was analysed on day 14 media samples and compared to NASH + TGFβ control samples. c Liver microtissues were stained for collagen-type I, α-SMA, nuclei (DAPI), phalloidin (green) and imaged by confocal microscopy. Representative images are shown and scale bars 200 µm. Staining of microtissues was quantified by measuring total fluorescence intensity throughout individual microtissues, each data point represents an average of all microtissues per MPS culture (min 8, max 20). All datapoints shown with error bars highlighting means ± SD, all data from a minimum of three independent cultures: all comparisons were made to NASH + TGFβ control samples.\nSoluble biomarkers in cell culture medium from the MPS were analysed by enzyme-linked immunosorbent assay (ELISA); IL-6 was measured by Human IL-6 DuoSet ELISA (R&D Systems); MCP-1 was measured by Human CCL2/MCP-1 DuoSet ELISA (R&D Systems); pro-collagen 1 was measured by Human Pro-Collagen I α1 DuoSet (R&D Systems); TIMP-1 was measured by Human TIMP-1 Quantikine ELISA Kit (R&D Systems); Fibronectin was measured by Human Fibronectin DuoSet ELISA (R&D Systems); YKL-40 was measured by Human Chitinase 3-like 1 Quantikine ELISA Kit (R&D Systems); Albumin secretion was measured by Human Albumin AssayMax™ ELISA kit (Assay Pro, St. Charles, MO). For all assays, the manufacturer’s protocol was followed.\n(§1) Liver microtissues were cultured for 4 days in HEP-FAT medium, before dosing with obeticholic acid or elafibranor. Both compounds were dissolved in DMSO, diluted in cell culture medium (final DMSO concentration ≤1%) and added to microtissues during a full medium change every two days and in addition on the intervening days compounds were spiked into the media to increase drug concentration back to desired concentrations. Cultures were maintained in the presence of the compound, for a total of 10 days in the presence or absence of TGFβ."}, "[2]": {"tested_on": "liver MPS NASH model (PHH, KC and HSC co-cultures, high fat)", "assay": "Fibrosis gene expression (Human Fibrosis RT2 Profiler PCR Arrays) in liver MPS NASH model dosed with OCA or ELF", "type": "cell-based", "conditions": "10 days, individual cultures", "protocol": "Fig. 3 Obeticholic acid and Elafibranor both modulate inflammatory and fibrosis phenotype in liver MPS NASH model and phenotype can additionally be reversed with dietary changes. PHH, KC and HSC co-cultures were cultured in the MPS platform under high fat conditions and dosed with varying concentrations of Obeticholic acid (OCA) and Elafibranor (ELF) QD or vehicle control (control) for 10 days, following an initial 4-day pre-culture phase. a The secreted cytokine profile from liver microtissues was compared by Luminex to determine the effects of each compound on the inflammatory profile of the liver with samples analysed at day 8 and 14 of the culture. Data were normalised by Z-transformation to allow comparison of all analytes and presented as a heatmap. b The expression of fibrosis-associated genes was analysed in total RNA from control, OCA and ELF treated liver microtissues (highest concentration for each compound) using Human Fibrosis RT2 Profiler PCR Arrays. Gene expression changes are expressed as a fold change over control. c Liver microtissues were stained for collagen-type I, α-SMA, nuclei (DAPI - blue), phalloidin (green) and imaged by confocal microscopy. Representative images are shown and scale bars 200 µm. d Staining of microtissue was quantified by measuring total fluorescence intensity throughout individual microtissues, each data point represents an average of all the microtissues imaged within an MPS scaffold (min 8, max 20 microtissues). e PHH, KC and HSC co-cultures were cultured in the MPS platform under high fat or lean conditions for 30 days. Cultures either remained in the same type of media throughout or were switched at day 15 from fat media to lean media (Fat -> Lean). Cell culture medium samples were analysed for the presence of IL-6, f MCP-1, g TIMP-1, which were measured by ELISA. h Microtissues were stained with Oil-Red O to determine fat loading during culture period, total stain was quantified by absorbance at 510 nm. All datapoints shown, either as box-whisker plots highlighting mean and min-max or with error bars highlighting means ± SD. All data from a minimum of three independent cultures; statistical comparisons made to control samples unless other comparison shown.\nTotal RNA was extracted from liver microtissue-containing scaffolds using TRIzol® Reagent (Ambion, USA) and a chloroform phase separation. RNA was precipitated from aqueous phase samples using 100% isopropanol and RNA pellets were resuspended in dH2O. Samples were analysed by both QPCR and RNAseq. For QPCR, reverse transcription and PCR were performed using RT2 First Strand Kit and Human Fibrosis RT² Profiler™ PCR Arrays (PAHS-120Z) (Qiagen, UK), with samples analysed on a Quantstudio 6 Real-Time PCR System (Applied Biosystems, UK). Ct values from samples were compared and normalised to house-keeping gene expression. The fold-change in each transcript represented on the array plate was determined using RT2 Profiler™ PCR Array Data Analysis (v. 3.5) Web Portal (Qiagen, UK).\nas §1"}}, "note": "“And” between values parts separate entries of the source, which are not always exact repeats. Equal values may be shown once.", "data": [{"compound": "CSc1ccc(C(=O)/C=C/c2cc(C)c(OC(C)(C)C(=O)O)c(C)c2)cc1", "note": "[Elafibranor]", "values": [{"measurement": "Pro-collagen 1", "setting": "[1]; 1.3 uM, listed as ELF", "value": "415.15 pg/day and 440.97 pg/day and 422.37 pg/day"}, {"measurement": "TIMP-1", "setting": "[1]; 1.3 uM, listed as ELF", "value": "239.08 pg/day and 252.67 pg/day and 220.1 pg/day"}, {"measurement": "Pro-collagen 1", "setting": "[1]; 13 uM, listed as ELF", "value": "371.17 pg/day and 444.41 pg/day and 309.29 pg/day"}, {"measurement": "TIMP-1", "setting": "[1]; 13 uM, listed as ELF", "value": "191.73 pg/day and 205.16 pg/day and 212.17 pg/day"}, {"measurement": "Pro-collagen 1", "setting": "[1]; 65 uM, listed as ELF", "value": "282.32 pg/day and 426.16 pg/day and 245.63 pg/day"}, {"measurement": "TIMP-1", "setting": "[1]; 65 uM, listed as ELF", "value": "278.05 pg/day and 246.83 pg/day and 169.84 pg/day"}, {"measurement": "soluble biomarkers TIMP-1 and pro-collagen 1", "setting": "[1]; NASH + TGFβ, day 14 media", "value": "reduced by ELF treatment"}, {"measurement": "CCL2 relative gene expression compared to GAPDH housekeeping gene", "setting": "[2]; 65.0 uM ELF, listed as ELF", "value": "3.92e-9 and 2.6e-9 and 6.31e-9"}, {"measurement": "CCL3 relative gene expression compared to GAPDH housekeeping gene", "setting": "[2]; 65.0 uM ELF, listed as ELF", "value": "3.39e-10 and 1.55e-10 and 3.45e-10"}, {"measurement": "CCL11 relative gene expression compared to GAPDH housekeeping gene", "setting": "[2]; 65.0 uM ELF, listed as ELF", "value": "4.99e-10 and 6.3e-10 and 6.52e-10"}, {"measurement": "CEBPB relative gene expression compared to GAPDH housekeeping gene", "setting": "[2]; 65.0 uM ELF, listed as ELF", "value": "1.2e-8 and 1.1e-8 and 2.65e-8"}, {"measurement": "CXCR4 relative gene expression compared to GAPDH housekeeping gene", "setting": "[2]; 65.0 uM ELF, listed as ELF", "value": "1.13e-9 and 7.47e-10 and 1.7e-9"}, {"measurement": "DCN relative gene expression compared to GAPDH housekeeping gene", "setting": "[2]; 65.0 uM ELF, listed as ELF", "value": "2.4e-7 and 1.65e-7 and 3.13e-7"}, {"measurement": "HGF relative gene expression compared to GAPDH housekeeping gene", "setting": "[2]; 65.0 uM ELF, listed as ELF", "value": "6.26e-10 and 2.45e-10 and 6.68e-10"}, {"measurement": "MMP1 relative gene expression compared to GAPDH housekeeping gene", "setting": "[2]; 65.0 uM ELF, listed as ELF", "value": "2.95e-9 and 8.23e-10 and 3.25e-9"}, {"measurement": "MMP9 relative gene expression compared to GAPDH housekeeping gene", "setting": "[2]; 65.0 uM ELF, listed as ELF", "value": "1.04e-8 and 2.47e-9 and 9.28e-9"}]}, {"compound": "CC[C@H]1[C@@H](O)[C@@H]2[C@H](CC[C@]3(C)[C@@H]([C@H](C)CCC(=O)O)CC[C@@H]23)[C@@]2(C)CC[C@@H](O)C[C@@H]12", "note": "[Obeticholic acid]", "values": [{"measurement": "Pro-collagen 1", "setting": "[1]; 0.25 uM, listed as OCA", "value": "444.17 pg/day and 318.9 pg/day and 467.42 pg/day"}, {"measurement": "TIMP-1", "setting": "[1]; 0.25 uM, listed as OCA", "value": "197.88 pg/day and 287.39 pg/day and 303.89 pg/day"}, {"measurement": "Pro-collagen 1", "setting": "[1]; 5 uM, listed as OCA", "value": "576.99 pg/day and 525.8 pg/day and 497.39 pg/day"}, {"measurement": "TIMP-1", "setting": "[1]; 5 uM, listed as OCA", "value": "311.28 pg/day and 328.19 pg/day and 368.24 pg/day"}, {"measurement": "Pro-collagen 1", "setting": "[1]; 12.5 uM, listed as OCA", "value": "448.27 pg/day and 351.02 pg/day and 505.76 pg/day"}, {"measurement": "TIMP-1", "setting": "[1]; 12.5 uM, listed as OCA", "value": "365.14 pg/day and 327.97 pg/day and 326.64 pg/day"}, {"measurement": "CCL2 relative gene expression compared to GAPDH housekeeping gene", "setting": "[2]; 12.5 uM OCA, listed as OCA", "value": "5.71e-9 and 9.72e-9 and 5e-9"}, {"measurement": "CCL3 relative gene expression compared to GAPDH housekeeping gene", "setting": "[2]; 12.5 uM OCA, listed as OCA", "value": "1.11e-9 and 5.96e-10 and 3.11e-10"}, {"measurement": "CCL11 relative gene expression compared to GAPDH housekeeping gene", "setting": "[2]; 12.5 uM OCA, listed as OCA", "value": "3.39e-10 and 4.66e-10 and 1.94e-10"}, {"measurement": "CEBPB relative gene expression compared to GAPDH housekeeping gene", "setting": "[2]; 12.5 uM OCA, listed as OCA", "value": "3e-8 and 1.33e-8 and 1.62e-8"}, {"measurement": "CXCR4 relative gene expression compared to GAPDH housekeeping gene", "setting": "[2]; 12.5 uM OCA, listed as OCA", "value": "2.04e-9 and 8.2e-10 and 6.3e-10"}, {"measurement": "DCN relative gene expression compared to GAPDH housekeeping gene", "setting": "[2]; 12.5 uM OCA, listed as OCA", "value": "3.44e-7 and 1.39e-7 and 1.03e-7"}, {"measurement": "HGF relative gene expression compared to GAPDH housekeeping gene", "setting": "[2]; 12.5 uM OCA, listed as OCA", "value": "1.68e-9 and 5.3e-10 and 3.89e-10"}, {"measurement": "MMP1 relative gene expression compared to GAPDH housekeeping gene", "setting": "[2]; 12.5 uM OCA, listed as OCA", "value": "9.31e-10 and 1.58e-9 and 2.05e-9"}, {"measurement": "MMP9 relative gene expression compared to GAPDH housekeeping gene", "setting": "[2]; 12.5 uM OCA, listed as OCA", "value": "1.47e-8 and 5.79e-9 and 3e-9"}]}]}
